{"source": "patent US20240366644A1", "about": "“ANTI-INFLAMMATORY APPLICATION OF GINSENOSIDE RD” (priority 2022, published 2024)", "key": {"[1]": {"test_system": "xylene-induced swelling of mouse ears", "experiment": "Xylene-induced swelling of mouse ears", "format": "in vivo, Kunming mice", "details": "for Ear mass difference / Swelling degree: 4 h after xylene", "method": "[…] KM mice, weighing 18-22 g, were randomly grouped, with ten mice in each group. The groups include a model group, a positive control group (Indomethacin, 10 mg/kg), a ginsenoside Rd low-dose group (5 mg/kg), and a ginsenoside Rd high-dose group (10 mg/kg). After 30 min of gavage administration of mice (the model group was administrated with the equal volume of 0.5% sodium carboxymethylcellulose by gavage), 0.03 ml of xylene was evenly applied to both sides of the right ear of each mouse in each group to cause inflammations on both sides, and the left ear of the mouse was not applied as a control. After 4 h, the mouse was killed by dislocation of cervical vertebra, the two ears of the mouse were cut off along the auricle, round ear slices of the same size (a diameter of 6 mm) were taken at the same position of the left and right ears and weighed respectively, a mass difference of the two ear slices was used as an ear swelling degree, and a swelling inhibition rate was calculated."}, "[2]": {"test_system": "mice with acute lung injury", "experiment": "Inflammatory factors (ELISA) in lung tissue and alveolar lavage fluid of mice with LPS acute lung injury", "format": "in vivo, Balb/c mice", "details": "for IL-1β in alveolar lavage fluid / IL-1β in lung tissue / IL-6 in alveolar lavage fluid / IL-6 in lung tissue / IL-18 in alveolar lavage fluid / IL-18 in lung tissue / TNF-α in alveolar lavage fluid / TNF-α in lung tissue: 24 h after modeling", "method": "Balb/c male mice, weighing 20-22 g, were randomly divided into five groups according to body weights, with eight mice in each group: a blank control group (propylene glycol-0.5% carboxymethylcellulose sodium), a model group (LPS, 15 mg/kg), a ginsenoside Rd low-dose group (10 mg/kg), a ginsenoside Rd high-dose group (20 mg/kg), and a Dexamethasone group (5 mg/kg). Mice in each group were intraperitoneally injected; after 1 h of administration, except for the blank control group, the mice in each group were intratracheally instilled with 20 μg of LPS for modeling; and the blank control group was intratracheally instilled with an equal volume of PBS.\nAfter 1 h of administration, a mouse ALI model was established; each mouse was intraperitoneally injected with sodium pentobarbital at 30 mg/kg, anesthetized and fixed on an operating table dorsally; skin preparation was carried out on the neck; the skin was incised to expose the trachea; 20 μg of LPS was instilled into the trachea using a microglass syringe; and then the mouse was gently rotated head up on the operating table, such that the instilled liquid was evenly distributed in the mouse lungs, and the skin incision was sutured.\nAfter 24 h of modeling, anesthetized mice were intraperitoneally injected with sodium pentobarbital at 30 mg/kg; lung tissues of the mice were taken and rinsed repeatedly in pre-cooled normal saline; the lung tissues were blood-removed, wiped with filter paper, weighed, and added with normal saline according to a ratio of 1:9 (W:V=1 g:9 ml); a tissue homogenate was prepared with a homogenization machine under an ice water bath; and a supernatant of mouse lung tissue homogenate was taken.\nThe mouse was anesthetized, and the trachea was separated; the whole lung was lavaged with 0.5 ml of pre-cooled normal saline, stayed for 1 min, and slowly pumped back with a syringe, and this process was repeated three times; and BLAF was collected, and centrifuged for 15 min at 4° C. and 1600 rpm/min.\nIn strict accordance with the operating instructions of an enzyme-linked immunosorbent assay kit (ELISA), the contents of TNF-α, IL-1β, IL-6 and IL-18 in the supernatant of mouse lung tissue homogenate and the BLAF supernatant were detected."}, "[3]": {"test_system": "mice with chronic bronchial asthma", "experiment": "Serum IL-4 and INF-γ in OVA-sensitised mice with chronic bronchial asthma", "format": "in vivo, BALB/c mice", "details": "for IL-4 in serum / INF-γ in serum: seven days, 24 h after the last excitation", "method": "After adaptive feeding (20-25° C., a humidity of 50-60%) for one week, the mice were randomly divided into a blank group, a model group, a ginsenoside Rd high-dose group, and a ginsenoside Rd low-dose group, with ten […] in each group.\nExcept for the blank group, the mice in the other groups were intraperitoneally injected with 0.2 ml of sensitization solution (containing 50 μg of OVA) on the Day 1, Day 8 and Day 15, respectively. Starting on Day 22, the mice in each group were placed in a nebulizer and inhaled with 2% OVA for exciting asthma. This inhalation was performed once a day, 45 min each time, for seven consecutive days.\nAdministration by gavage was performed 30 min before each asthma stimulation, once a day for seven consecutive days. The blank group and the model group were administrated with normal saline by gavage, the high-dose group was administrated with 10 mg/kg ginsenoside Rd by gavage, and the low-dose group was administrated with 5 mg/kg ginsenoside Rd by gavage.\n24 h after the last excitation, the mice were sampled, blood was collected from the eyeballs and separated to obtain serum, and IL-4 and INF-γ in the serum were detected."}, "[4]": {"details": "5 mg/kg gavage 30 min before xylene"}, "[5]": {"details": "10 mg/kg gavage 30 min before xylene"}, "[6]": {"details": "10 mg/kg intraperitoneal 1 h before LPS"}, "[7]": {"details": "20 mg/kg intraperitoneal 1 h before LPS"}, "[8]": {"details": "high-dose 10 mg/kg gavage once a day"}, "[9]": {"details": "low-dose 5 mg/kg gavage once a day"}}, "data": [{"smiles": "CC(C)=CCC[C@](C)(O[C@@H]1O[C@H](CO)[C@@H](O)[C@H](O)[C@H]1O)[C@H]1CC[C@]2(C)[C@@H]1[C@H](O)C[C@@H]1[C@@]3(C)CC[C@H](O[C@@H]4O[C@H](CO)[C@@H](O)[C@H](O)[C@H]4O[C@@H]4O[C@H](CO)[C@@H](O)[C@H](O)[C@H]4O)C(C)(C)[C@@H]3CC[C@]12C", "note": "[Ginsenoside Rd, ginsenoside Rd]", "values": [{"measurement": "Ear mass difference", "setting": "[1]; [4]", "result": "11.84 ± 1.02", "unit": "mg"}, {"measurement": "Swelling degree", "setting": "[1]; [4]", "result": "7.56 ± 2.05 (mg) (%)"}, {"measurement": "ear swelling inhibition rate compared with Indomethacin", "setting": "[1]; 10 mg/kg", "result": "close to that of Indomethacin"}, {"measurement": "Ear mass difference", "setting": "[1]; [5]", "result": "7.68 ± 0.39", "unit": "mg"}, {"measurement": "Swelling degree", "setting": "[1]; [5]", "result": "6.59 ± 1.96 (mg) (%)"}, {"measurement": "inhibition at 5 mg/kg", "setting": "[1]; Mus musculus, po, ear swelling, 5 mg/kg gavage, read-out: Inhibition rate", "result": 30.3, "unit": "%"}, {"measurement": "inhibition at 10 mg/kg", "setting": "[1]; Mus musculus, po, ear swelling, 10 mg/kg gavage, read-out: Inhibition rate", "result": 39.3, "unit": "%"}, {"measurement": "ear swelling of mice caused by xylene", "setting": "[1]; compared with the model group", "result": "significantly inhibit ear swelling"}, {"measurement": "IL-1β in alveolar lavage fluid", "setting": "[2]; [6]", "result": "79.63 ± 21.33", "unit": "ng/L"}, {"measurement": "IL-1β in lung tissue", "setting": "[2]; [6]", "result": "80.23 ± 18.08", "unit": "ng/L"}, {"measurement": "IL-6 in alveolar lavage fluid", "setting": "[2]; [6]", "result": "39.37 ± 9.12", "unit": "ng/L"}, {"measurement": "IL-6 in lung tissue", "setting": "[2]; [6]", "result": "84.70 ± 10.84", "unit": "ng/L"}, {"measurement": "IL-18 in alveolar lavage fluid", "setting": "[2]; [6]", "result": "81.20 ± 21.27", "unit": "ng/L"}, {"measurement": "IL-18 in lung tissue", "setting": "[2]; [6]", "result": "94.03 ± 15.22", "unit": "ng/L"}, {"measurement": "TNF-α in alveolar lavage fluid", "setting": "[2]; [6]", "result": "344.09 ± 61.08", "unit": "ng/L"}, {"measurement": "TNF-α in lung tissue", "setting": "[2]; [6]", "result": "98.14 ± 14.48", "unit": "ng/L"}, {"measurement": "IL-1β in alveolar lavage fluid", "setting": "[2]; [7]", "result": "49.51 ± 6.89", "unit": "ng/L"}, {"measurement": "IL-1β in lung tissue", "setting": "[2]; [7]", "result": "30.52 ± 13.42", "unit": "ng/L"}, {"measurement": "IL-6 in alveolar lavage fluid", "setting": "[2]; [7]", "result": "29.53 ± 8.99", "unit": "ng/L"}, {"measurement": "IL-6 in lung tissue", "setting": "[2]; [7]", "result": "36.81 ± 13.45", "unit": "ng/L"}, {"measurement": "IL-18 in alveolar lavage fluid", "setting": "[2]; [7]", "result": "44.64 ± 17.91", "unit": "ng/L"}, {"measurement": "IL-18 in lung tissue", "setting": "[2]; [7]", "result": "37.54 ± 15.80", "unit": "ng/L"}, {"measurement": "TNF-α in alveolar lavage fluid", "setting": "[2]; [7]", "result": "186.04 ± 75.00", "unit": "ng/L"}, {"measurement": "TNF-α in lung tissue", "setting": "[2]; [7]", "result": "46.88 ± 19.52", "unit": "ng/L"}, {"measurement": "contents of TNF-α, IL-1β, IL-6 and IL-18 in the lung tissues and BLAF", "setting": "[2]; compared with the model group", "result": "significantly reduce"}, {"measurement": "effect on TNF-α, IL-1β, IL-6 and IL-18 contents compared with Dexamethasone", "setting": "[2]; high-dose group 20 mg/kg, P<0.01", "result": "better than that of Dexamethasone"}, {"measurement": "IL-4 in serum", "setting": "[3]; [8]", "result": "36.11 ± 10.98", "unit": "pg/mL"}, {"measurement": "INF-γ in serum", "setting": "[3]; [8]", "result": "102.48 ± 7.81"}, {"measurement": "IL-4 in serum", "setting": "[3]; [9]", "result": "10.72 ± 16.74", "unit": "pg/mL"}, {"measurement": "INF-γ in serum", "setting": "[3]; [9]", "result": "95.34 ± 13.59"}, {"measurement": "expression of IL-4", "setting": "[3]; mouse, in vivo", "result": "reduce the expression of IL-4"}, {"measurement": "expression of INF-γ", "setting": "[3]; mouse, in vivo", "result": "increase the expression of INF-γ"}]}]}
